Assays:
[1] = tested on: colorectal cancer cell line HCT116; experiment: Wound healing assay; settings: 0, 8 and 24 hours, FIGS. 21 to 23
HCT116 cell line = experiment: Transwell migration assay, chlorphenesin alone; format: cell-based, human; settings: 18 hours, FIGS. 8 and 9
[2] = tested on: colorectal cancer cell line CT26; experiment: Wound healing assay at low concentration; format: cell-based, mouse; settings: 1 μM chlorphenesin; 24 hours; FIG. 59
Procedure: Wound healing analysis was performed to measure cell motility. […] After incubation of the cells for 24 hours in the presence or absence of chlorphenesin (1 μM), a photograph of the dyed monolayers was taken with a microscope.

CT26 cell-induced tumors = experiment: CT26 tumor animal model, tumor growth and lung metastasis; format: in vivo, Balb/c mice
Procedure: Specifically, 60 Balb/c mice were subcutaneously inoculated once with 100 μL of CT26 cell suspension (1×10^7 cells/mL) to induce tumors, thereby producing a xenograft animal model. […] For the chlorphenesin single administration, 10 animal models were abdominally administered with 10 mg/kg chlorphenesin (3 times a week) for 5 weeks or 14 animal models were orally administered with 20 mg/kg chlorphenesin (5 times a week) for 5 weeks. 14 animal models were administered with the same dose of PBS as chlorphenesin as a negative control. […] The body weight of the animal models was measured once a week, and the tumor size was measured once a week from the day of drug administration. After 6 weeks, animal models were anesthetized with ether, and tumors and lungs were collected.

SW480 cell line = experiment: Transwell migration assay, chlorphenesin alone; format: cell-based, human; settings: 18 hours, laminin in lower well, FIGS. 6 and 7
[3] = tested on: biliary tract cancer cell line SNU1079; experiment: Transwell migration assay with Combination Index; settings: 18 hours, FIGS. 51 and 52
[4] = tested on: colorectal cancer cell lines CT26, HCT116 and SW480; experiment: MTT cell survival rate, colorectal cancer cell lines; format: cell-based, mouse (CT26), human (HCT116; settings: single treatment, 24, 48 and 72 hours; for concentration at which toxicity was shown (cell survival rate): FIGS. 1 to 3
Procedure: In order to confirm the effect of chlorphenesin (named as OC-201), chloroquine (named as OC-202) and chloropyrazine (named as OC-203) alone on the survival rate of colorectal cancer cells, cell survival rate was evaluated for the colorectal cancer cell lines CT26, HCT116 and SW480 cell lines by MTT assay (Promega, Ltd.) according to the manufacturer's protocol. […] The pre-treated cell lines were incubated with 5 mg/mL MTT for 4 hours. Thereafter, the medium was removed, and 150 μL of the solubilization solution and the stop solution were added, followed by incubation at 30° C. for 4 hours. The absorbance of the reaction solution was measured at 570 nm. The cell survival rate was calculated using the following Equation 1. Cell survival rate=absorbance of experimental group (at 570 nm)/absorbance of control (at 570 nm)×100(%) [Equation 1]
The pre-treated cell lines were incubated with 5 mg/mL MTT for 4 hours. Thereafter, the medium was removed, and 150 μL of the solubilization solution and the stop solution were added, followed by incubation at 30° C. for 4 hours. The absorbance of the reaction solution was measured at 570 nm. The cell survival rate was calculated using the above Equation 1.

CT26 cell line = experiment: Transwell migration assay, chlorphenesin alone; format: cell-based, mouse; settings: 18 hours, FIGS. 10 and 11
[5] = tested on: pancreatic cancer cell lines Aspc-1, MIAPaCA2 and Panc-1; experiment: MTT cell survival rate, pancreatic cancer cell lines; format: cell-based, human; settings: for cytotoxicity (cell survival rate), single administration: up to 1 mM chlorphenesin, up to 100 μM chloropyrazine, 24, 48, 72 hours, FIGS. 30 and 32
Procedure: The pre-treated cell lines were incubated with 5 mg/ml MTT for 4 hours. Thereafter, the medium was removed, and 150 μL of the solubilization solution and the stop solution were added, followed by incubation at 30° C. for 4 hours. The absorbance of the reaction solution was measured at 570 nm. The cell survival rate was calculated using the equation 1 as described above.
(§1) The pre-treated cell lines were incubated with 5 mg/ml MTT for 4 hours. Thereafter, the medium was removed, and 150 μL of the solubilization solution and the stop solution were added, followed by incubation at 30° C. for 4 hours. The absorbance of the reaction solution was measured at 570 nm. The cell survival rate was calculated using the above equation 1.

[6] = tested on: colorectal cancer cells CT26 and HCT116; experiment: Transwell migration assay at low concentration; format: cell-based, mouse (CT26), human (HCT116); settings: 1 μM chlorphenesin; 8 hours; FIG. 58
[7] = tested on: biliary tract cancer cell lines SNU1079 and SNU308; settings: human, 48 h
Procedure: (§2) The pre-treated cell lines were incubated with 5 mg/ml MTT for 4 hours. Thereafter, the medium was removed, and 150 μL of the solubilization solution and the stop solution were added, followed by incubation at 30° C. for 4 hours. The absorbance of the reaction solution was measured at 570 nm. The cell survival rate was calculated using equation 1 as described above.
as §1

[8] = tested on: colorectal cancer cell lines HCT116; experiment: Soft agar colony formation assay (anchorage independent growth), chlorphenesin alone; format: cell-based, human; settings: 3 weeks, FIG. 27
SNU 308 cell line = experiment: MTT cell survival rate; format: cell-based, human; settings: after 48 hours, FIG. 47
Procedure: as §2

SNU1079 = experiment: MTT cell survival rate; format: cell-based, human; settings: FIG. 47
Procedure: as §2

Compound | concentration at which migration was decreased (wound healing) [1] | concentration at which cell migration was specially decreased (HCT116 cell line) | mobility of the CT26 cell line (wound healing) [2] | tumor size compared with the control groups (CT26 cell-induced tumors; chlorphenesin 20 mg/kg orally, 5 times a week for 5 weeks, FIG. 61) | cancer metastasis to lungs compared to control groups (CT26 cell-induced tumors; chlorphenesin-treated group, 5 weeks dosing, lungs collected after 6 weeks, FIG. 60) | concentration at which cell migration was significantly reduced (SW480 cell line) | concentration at which cell migration was decreased [3] | concentration at which the decrease of cell migration was remarkable [3] | concentration at which toxicity was shown (cell survival rate) [4] | concentration at which cell migration was specially decreased (CT26 cell line) | cytotoxicity (cell survival rate), single administration [5] | invasion ability and migration ability of the cells compared to the control [6] | concentration at which apparent cytotoxicity was shown [7] | concentration at which colony forming ability was decreased [8] | concentration at which cytotoxicity was shown (SNU 308 cell line) | concentration at which cytotoxicity was shown (SNU1079; after 48 hours) | concentration at which cytotoxicity was shown (SNU1079; for 24 hours) | concentration at which cytotoxicity was shown ([5]; single administration, FIG. 31) | concentration at which not toxic (cell survival rate) ([4]; FIG. 3)
OCC(O)COc1ccc(Cl)cc1 (stereo not drawn) [chlorphenesin] | ≥ 25 µM | ≥ 250 µM | reduced | reduction in the tumor size | no cancer metastasis to lungs | ≥ 25 µM | ≥ 25 µM | ≥ 100 µM | more than 500 μM | ≥ 250 µM | did not show cytotoxicity even at high doses | significantly reduced | ≥ 1000 µM | ≥ 250 µM |  |  |  |  | 
CCN(CC)CCCC(C)Nc1ccnc2cc(Cl)ccc12 (stereo not drawn) [chloroquine] |  |  |  |  |  |  |  |  | more than 10 μM |  |  |  |  |  | ≥ 50 µM | ≥ 25 µM | ≥ 50 µM | ≥ 50 µM | 
Clc1cnccn1 [chloropyrazine] |  |  |  |  |  |  |  |  |  |  | did not show cytotoxicity even at high doses |  |  |  |  |  |  |  | ≤ 100 µM
